Assay results: patent US20170137410A1, “FUSED CYCLOALKYL-PYRIMIDINE COMPOUNDS AND USES THEREOF” (Medivation Technologies, Inc., priority 2014, published 2017)
pIC50: −log10 of the molar value.

Columns and labels:
activated IR = biological target: T1, activated IR (Homo sapiens, UniProt P06213); experiment: In vitro IR enzymatic assay (ADP-Glo); assay type: biochemical; conditions: ATP 50 μM
T1 construct: purchased Millipore 14-803
Procedure: Inhibition of IGF-1R and IR kinases by compounds described herein were tested. The IC50 values were measured in vitro using an ADP-Glo kinase assay Kit (Promega). For the IGF-1R assay, active recombinant IGF-1R (Millipore #14-802) was used at 1 ng/reaction, the substrate IGF-1R tide (Millipore #12-527) was used at 125 μM and ATP was used at 100 μM. For the IR assay, active recombinant IR (Millipore #14-803) was used at 1 ng/reaction, the substrate Axl tide (Millipore #12-516) was used at 125 μM and ATP at 50 μM. Kinase reactions in both assays were conducted at 30° C. for 20 min with increasing concentrations of the test compounds.
The assay results as the percent inhibition of binding are presented in Tables B2 and B3 for IGF-1R and IR respectively.

FLT3 (D835Y) = biological target: T2, FLT3 (D835Y) (Homo sapiens, UniProt P36888, D835Y); experiment: HotSpot kinase assay against FLT3 (D835Y); assay type: biochemical; conditions: HotSpot 33P assay, ATP 10 μM
T2 sequence (P36888 27-993 D835Y): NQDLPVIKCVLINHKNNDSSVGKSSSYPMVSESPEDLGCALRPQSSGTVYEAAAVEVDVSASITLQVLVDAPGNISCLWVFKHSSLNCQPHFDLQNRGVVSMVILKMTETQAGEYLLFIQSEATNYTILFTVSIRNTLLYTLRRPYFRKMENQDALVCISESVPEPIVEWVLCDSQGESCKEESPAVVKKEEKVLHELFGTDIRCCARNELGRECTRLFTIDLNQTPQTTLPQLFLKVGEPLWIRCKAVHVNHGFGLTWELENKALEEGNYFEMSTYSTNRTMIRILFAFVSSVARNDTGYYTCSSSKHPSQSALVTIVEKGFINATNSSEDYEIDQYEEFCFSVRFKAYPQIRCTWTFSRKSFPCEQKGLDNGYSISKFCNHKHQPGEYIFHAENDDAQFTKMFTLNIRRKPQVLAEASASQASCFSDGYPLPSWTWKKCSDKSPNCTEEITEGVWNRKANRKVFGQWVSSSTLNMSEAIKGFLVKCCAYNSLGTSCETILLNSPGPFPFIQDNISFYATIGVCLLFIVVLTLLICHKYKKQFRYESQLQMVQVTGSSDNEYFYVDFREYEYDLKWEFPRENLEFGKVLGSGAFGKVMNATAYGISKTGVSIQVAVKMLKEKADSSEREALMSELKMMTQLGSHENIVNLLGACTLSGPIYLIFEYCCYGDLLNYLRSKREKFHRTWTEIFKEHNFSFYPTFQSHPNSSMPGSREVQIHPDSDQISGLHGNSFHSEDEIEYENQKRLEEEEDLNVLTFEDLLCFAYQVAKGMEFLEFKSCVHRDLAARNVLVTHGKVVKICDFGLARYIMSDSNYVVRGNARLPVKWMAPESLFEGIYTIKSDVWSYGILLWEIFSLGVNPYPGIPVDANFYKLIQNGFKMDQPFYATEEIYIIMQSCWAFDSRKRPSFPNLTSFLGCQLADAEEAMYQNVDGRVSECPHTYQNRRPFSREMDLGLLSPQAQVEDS
Procedure: Kinase assays were performed using test compounds against a panel of FLT3 kinases: FLT3; FLT3 (D835Y); and FLT3 (ITD). Compounds were prepared as 10 mM stock solutions in DMSO prior to use in the assay. Each compound was tested at 10 concentrations with three-fold serial dilution starting at 1 μM against the three kinases. The control compound, staurosporine, was tested at 10 concentrations with four-fold serial dilution starting at 20 μM. IC50 values and curve fits were obtained using Prism (GraphPad Software). The screening was performed using the “HotSpot” assay platform. The assay measures the conversion of a peptide substrate to ^33P-labelled phosphorylated product. Briefly, specific kinase/substrate pairs along with required cofactors were prepared in reaction buffer. Specifically, the substrate was prepared in reaction buffer (20 mM Hepes, pH 7.5; 10 mM MgCl2; 1 mM EGTA; 0.02% Brij35; 0.02 mg/mL BSA; 0.1 mM Na3VO4; 2 mM DTT; 1% DMSO), followed by delivery of any required cofactor to the resulting substrate solution. The corresponding kinase was delivered into the substrate solution and the reaction mixture was mixed gently. Compound was delivered into the reaction mixture, followed 15-20 min later by addition of a mixture of ATP (Sigma, St. Louis Mo.) and ^33P ATP (specific activity 0.01 μCi/μL final; Perkin Elmer, Waltham, Mass.) to a final concentration of 10 μM to initiate the reaction. Reactions were carried out at RT for 120 min, followed by spotting of the reactions onto P81 ion exchange filter paper (Whatman #3698-915; Whatman Inc., Piscataway, N.J.). Unbound phosphate was removed by extensive washing of filters in 0.75% phosphoric acid. […] The percent of enzyme inhibition was calculated based on the percent of remaining kinase activity. IC50 values were determined.

T1 sequence (P06213 28-1382): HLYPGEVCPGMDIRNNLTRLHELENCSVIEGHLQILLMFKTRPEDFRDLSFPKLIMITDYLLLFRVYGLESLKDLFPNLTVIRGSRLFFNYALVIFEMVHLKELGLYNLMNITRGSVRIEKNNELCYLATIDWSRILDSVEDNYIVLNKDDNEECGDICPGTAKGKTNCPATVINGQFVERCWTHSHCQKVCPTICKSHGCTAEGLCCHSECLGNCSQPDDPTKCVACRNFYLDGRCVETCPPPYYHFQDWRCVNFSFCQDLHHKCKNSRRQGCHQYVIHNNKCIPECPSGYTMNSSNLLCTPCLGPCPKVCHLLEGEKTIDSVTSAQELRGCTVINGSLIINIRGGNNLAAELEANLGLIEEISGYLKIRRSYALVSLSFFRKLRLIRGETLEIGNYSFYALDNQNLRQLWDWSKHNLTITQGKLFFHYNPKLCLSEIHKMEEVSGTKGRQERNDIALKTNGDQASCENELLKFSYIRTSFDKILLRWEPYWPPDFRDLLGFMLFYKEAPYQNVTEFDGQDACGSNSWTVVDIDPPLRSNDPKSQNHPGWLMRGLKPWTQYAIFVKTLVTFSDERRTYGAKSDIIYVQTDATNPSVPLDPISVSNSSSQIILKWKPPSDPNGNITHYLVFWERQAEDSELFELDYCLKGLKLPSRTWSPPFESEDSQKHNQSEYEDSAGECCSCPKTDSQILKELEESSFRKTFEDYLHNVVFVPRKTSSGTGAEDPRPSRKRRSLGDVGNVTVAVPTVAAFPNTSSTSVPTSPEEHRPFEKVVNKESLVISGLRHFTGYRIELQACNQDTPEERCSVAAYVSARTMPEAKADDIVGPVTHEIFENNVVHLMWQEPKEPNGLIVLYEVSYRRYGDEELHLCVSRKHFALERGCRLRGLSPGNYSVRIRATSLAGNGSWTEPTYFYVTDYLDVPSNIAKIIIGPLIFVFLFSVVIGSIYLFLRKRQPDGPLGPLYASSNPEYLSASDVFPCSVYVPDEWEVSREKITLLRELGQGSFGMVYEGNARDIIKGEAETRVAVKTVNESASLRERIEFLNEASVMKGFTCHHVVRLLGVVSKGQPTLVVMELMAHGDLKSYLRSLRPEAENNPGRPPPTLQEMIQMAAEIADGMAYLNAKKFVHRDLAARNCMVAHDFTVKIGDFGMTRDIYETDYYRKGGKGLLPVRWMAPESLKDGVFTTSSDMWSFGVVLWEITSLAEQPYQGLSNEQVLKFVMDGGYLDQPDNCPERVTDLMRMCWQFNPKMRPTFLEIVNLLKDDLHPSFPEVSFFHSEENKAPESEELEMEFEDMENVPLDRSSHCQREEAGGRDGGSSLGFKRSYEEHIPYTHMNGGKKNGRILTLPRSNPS

| SMILES | pIC50 (activated IR) | pIC50 (FLT3 (D835Y)) | inhibition at 1 µM (activated IR; compound 1 μM) |
| --- | --- | --- | --- |
| CC(C)(C)c1cc(Nc2nc(N3CCC[C@@H]3C(=O)N3CCC(F)(F)CC3)nc3c2CCC3)n[nH]1 [142a, (R)-(1-(4-((5-(tert-butyl)-1H-pyrazol-3-yl)amino)-6,7-dihydro-5H-cyclopenta[d]pyrimidin-2-yl)pyrrolidin-2-yl)(4,4-difluoropiperidin-1-yl)methanone] | 5.53 | < 6.00 | – |
| CCN(C(=O)[C@@H]1CCCN1c1nc2c(c(Nc3cc(C(C)(C)C)[nH]n3)n1)CCC2)c1nccs1 [144b, (S)-1-(4-((5-(tert-butyl)-1 H-pyrazol-3-yl)amino)-6,7-dihydro-5H-cyclopenta[d]pyrimidin-2-yl)-N-ethyl-N-(thiazol-2-yl)pyrrolidine-2-carboxamide] | 5.22 | < 6.00 | – |
| CC(C)(C)c1cc(Nc2nc(N3CCC[C@H]3C(=O)N3CCC(F)(F)CC3)nc3c2CCC3)n[nH]1 [142b, (S)-(1-(4-((5-(tert-butyl)-1H-pyrazol-3-yl)amino)-6,7-dihydro-5H-cyclopenta[d]pyrimidin-2-yl)pyrrolidin-2-yl)(4,4-difluoropiperidin-1-yl)methanone] | 4.93 | < 6.00 | – |
| CCC(=O)N1CCN(C(=O)[C@@H]2CCCN2c2nc3c(c(Nc4cc(C5CCCC5)[nH]n4)n2)CCC3)CC1 [143b, (S)-1-(4-((4-((5-cyclopentyl-1H-pyrazol-3-yl)amino)-6,7-dihydro-5H-cyclopenta[d]pyrimidin-2-yl)prolyl)piperazin-1-yl)propan-1-one] | 4.77 | 6.73 | – |
| CC1(C(=O)N2CCC(F)(F)CC2)CCCN1c1nc2c(c(Nc3cc(C4CCCC4)[nH]n3)n1)CCC2 (racemic) [compound 146, (1-(4-((5-cyclopentyl-1H-pyrazol-3-yl)amino)-6,7-dihydro-5H-cyclopenta[d]pyrimidin-2-yl)-2-methylpyrrolidin-2-yl)(4,4-difluoropiperidin-1-yl)methanone] | < 4.52 | 5.80 | – |

Stronger by pIC50 (activated IR), values ahead:

| pIC50 (activated IR) | pIC50 (FLT3 (D835Y)) | inhibition at 1 µM (activated IR; compound 1 μM) | SMILES |
| --- | --- | --- | --- |
| 6.17 | 6.58 | – | CCN(C(=O)[C@@H]1CCCN1c1nc2c(c(Nc3cc(C(C)C)[nH]n3)n1)CCC2)c1nccs1 [145b, (S)—N-ethyl-1-(4-((5-isopropyl-1H-pyrazol-3-yl)amino)-6,7-dihydro-5H-cyclopenta[d]pyrimidin-2-yl)-N-(thiazol-2-yl)pyrrolidine-2-carboxamide] |
| 6.19 | 7.85 | – | CCC(=O)N1CCN(C(=O)[C@H]2CCCN2c2nc3c(c(Nc4cc(C5CCCC5)[nH]n4)n2)CCC3)CC1 [143a, 1-(4-((4-((5-cyclopentyl-1H-pyrazol-3-yl)amino)-6,7-dihydro-5H-cyclopenta[d]pyrimidin-2-yl)-D-prolyl)piperazin-1-yl)propan-1-one] |
| 6.44 | 7.08 | 77% | CC(C)c1cc(Nc2nc(N3CCC[C@H]3C(=O)N(C)c3nccs3)nc3c2CCC3)n[nH]1 [68b, (S)-1-(4-((5-isopropyl-1H-pyrazol-3-yl)amino)-6,7-dihydro-5H-cyclopenta[d]pyrimidin-2-yl)-N-methyl-N-(thiazol-2-yl)pyrrolidine-2-carboxamide] |
